Experimental data reported in US20230147942A1, “PHARMACEUTICAL COMPOSITION COMPRISING NEW LACTOBACILLUS PLANTARUM KC3 STRAIN AND LEONURUS JAPONICUS EXTRACT AS ACTIVE INGREDIENTS FOR PREVENTING OR TREATING RESPIRATORY DISEASE AND USE THEREOF” (KT&G CORPORATION, priority 2020, published 2023).

Legend:
neutrophils = assay: Ratio of number of neutrophils to total number of cells in BAL fluid (Diff-Qick staining); format: in vivo, mouse
Protocol: (§1) BALB/c male mice (7-week-old, 20 g to 25 g, Orient Bio) were divided into groups of 6 mice, and as assigned to 6 mice in each group, and Alum was diluted in components of air pollutants, i.e., 10 mg/ml of coal combustible materials, 10 mg/ml of fly ash, and 5 mg/ml of diesel exhaust particle (DEP) to have a final concentration of 1% so that a final concentration of each component was 1.5 mg/ml for coal combustible material/fly ash and 5 mg/ml for DEP in a mixture. Then, to all groups except for a normal group, the mixture was directly injected into the airway and nose of the experimental animals by 50 pl each on the 4th, 7th and 10th says of the experiment.
(§2) For a positive control group treated with dexamethasone (Sigma D2915), administed at 3 mg/kg BW of the mouse model, the Lactobacillus plantarum KC3 strain (KC3) was diluted at a concentration of 1×10^9CFU/cell (about 2 mg/kg BW), the Leonurus japonicus extract was diluted in distilled water at a dose of 100 mg/kg of BW, and then orally administered at a dose of 300 pl every day (for 11 days). […]

TNF-α = assay: Expression level of inflammation factor in BAL fluid (ELISA); format: in vivo, mouse
Protocol: as §1
(§3) For a positive control group treated with dexamethasone (Sigma D2915), administed at 3 mg/kg BW of the mouse model, the Lactobacillus plantarum KC3 strain (KC3) was diluted at a concentration of 1×10^9CFU/cell (about 2 mg/kg BW), the Leonurus japonicus extract was diluted in distilled water at a dose of 100 mg/kg of BW, and then orally administered at a dose of 300 pl every day (for 11 days). For a mixed group including the KC3 strain and the Leonurus japonicus extract, the solution was mixed and diluted at a ratio of 1:1 by the dry weight as in Examples above, and then orally administered at a dose of 300 pl every day (for 11 days) (the cell amount in the KC3 included in the mixture was 0.5×10^9 CFU/cell, and the dose of the Leonurus japonicus extract was set at 50 mg/kg BW). The oral administration was performed at a dose of 300 μl per mouse, and an autopsy was performed on the 12th day after the start of the experiment to recover the BAL solution.
(§4) An experiment was carried out to confirm whether the expression level of inflammation factors in the BAL fluid can be lowered, when treated with the Lactobacillus plantarum KC3 strain, the Leonurus japonicus extract, or the mixture thereof.
(§5) The experiment was carried out in the same manner as in Experimental Example 1-3, except that the number of cells in BAL fluid was measured. Instead of measuring the number of cells, ELISA was performed to measure the expression level of respiratory inflammation factors, such as IL-17A, TNF-α, and CXCL-1, expressed in BAL fluid. In detail, IL-17A antibodies (M1700, R&D Systems, Minneapolis, USA), TNF-α antibodies (MTA00B, R&D Systems, Minneapolis, USA), and CXCL-1 antibodies (MKCOOB, R&D Systems, Minneapolis, USA) were diluted with a buffer solution, coated microwells, and then cultured at 4° C. for 16 hours. Each well was washed with a buffer solution three times, and 10-fold diluted serum was dispensed at 100 μl per well. After being left at room temperature for 1 hour, the wells were washed twice. Then, 100 μl of Avidin-HRP-conjugated antibodies (DY007, R&D Systems, Minneapolis, USA) was treated thereon, and the wells were left again at room temperature for 1 hour, followed by washing again.
(§6) Tetramethylbenzidine (TMB) base solution (DY007, R&D Systems, Minneapolis, USA) was dispensed at 100 μl per well, and the well plate was left in the dark for 30 minutes. After 50 μl of a stopping solution (DY007, R&D Systems, Minneapolis, USA) was treated thereon, absorbance of the cells was measured at 450 nm.

IL-17A = assay: as above; format: in vivo, mouse
Protocol: as §1, §3, §4, §5, §6

CXCL-1 = assay: as above; format: in vivo, mouse
Protocol: as §1, §3, §4, §5, §6

[1] = test system: total number of cells in BAL fluid; assay: Total number of cells in BAL fluid, mouse model having respiratory damage caused by air pollutants; format: in vivo
Protocol: as §1, §2

[2] = test system: symmetric dimethylarginine (SDMA); assay: Measurement of SDMA as COPD biomarker in blood (ELISA); format: in vivo, mouse
Protocol: as §1, §2
After being left at room temperature for 1 hour, the wells were washed twice. […] After 50 μl of a stopping solution (DY007, R&D Systems, Minneapolis, USA) was treated thereon, absorbance of the cells was measured at 450 nm. […]

[3] = BALB/c mice, air pollutant-induced, oral daily 11 days, BAL day 12, dexamethasone 3 mg/kg, KC3 1×10^9 CFU, Leo 100 mg/kg, mixture 0.5×10^9 CFU + 50 mg/kg
[4] = BALB/c mice, air pollutant-induced, oral daily 11 days, dexamethasone 3 mg/kg, KC3 1×10^9 CFU, Leo 100 mg/kg, mixture 0.5×10^9 CFU + 50 mg/kg

SMILES: C[C@@H]1C[C@H]2[C@@H]3CCC4=CC(=O)C=C[C@]4(C)[C@@]3(F)[C@@H](O)C[C@]2(C)[C@@]1(O)C(=O)CO [Positive control group, dexamethasone]
- Ratio of number of neutrophils to total number of BAL cells (400X) (neutrophils; [3]): 35.5 ± 6.1
- Inhibition rate (based on induced group), neutrophil ratio (neutrophils; same dosing, based on induced group): 50%
- TNF-α Concentration (TNF-α; [4]): 64.5 ± 7.7 pg/mL
- TNF-α inhibition rate (%) based on induced group (TNF-α; same dosing): (46%)
- IL-17A Concentration (IL-17A; [4]): 19.7 ± 6.3 pg/mL
- IL-17A inhibition rate (%) based on induced group (IL-17A; same dosing): (41%)
- CXCL-1 Concentration (CXCL-1; [4]): 122 ± 12.4 pg/mL
- CXCL-1 inhibition rate (%) based on induced group (CXCL-1; same dosing): (39%)
- Total number of BAL cells (×10^4 cells/ml) [1, 3]: 71.2 ± 8.3 ×10^4 cells/ml
- Inhibition rate (based on induced group), total BAL cells ([1]; same dosing as total BAL cells, based on induced group): 54%
- SDMA level (μg/mL) in serum [2, 4]: 10.1 ± 1.9 µg/mL
- Inhibition rate (based on induced group), SDMA ([2]; serum, same dosing): 41%
